Measurements from patent US10226041B2, “Compositions and methods for improving the quality of processed sperm” (Inguran, LLC, priority 2011, dated 2019).

System: sex-sorted sperm cells
Experiment: CASA post-thaw motility of sex sorted bull sperm treated with OSR
Type: cell-based, bovine
Parameters: key to BCF: beat cross frequency in Hz; key to ALH: lateral head displacement in μm; key to STR / LIN: percent; key to Motile: percent motile sperm; key to VAP / VSL / VCL: velocity in μm/s
Conditions: 3 step
Excerpt: 5. Sperm Motility Evaluations by CASA. A comparison of viewing chambers and slides can be done in a variety of IVOS instruments, which for example only can be a Hamilton-Thorne IVOS (Hamilton-Thorne, Beverly, Mass.). Instrument settings: image capture; frames per second=60; number of frames=30; cell detection; minimum contrast=50; minimum cell size=5; defaults, cell size=5; cell intensity=50; progressive cells, path velocity=50 um/s; straightness ≥70%; slow cells (um/s); average path velocity (VAP, <30 um/s), straight-line velocity (VSL, <15 um/s). The CASA motility variables measured can be a percentage of total motile sperm (motile), percentage of progressively motile sperm (progressive), VAO, VSL, curvilinear velocity (VCL, um/s), average lateral head displacement (ALK, um) and the number of times the sperm head crosses the mean path/s (BCF, Hz), straight-line sperm motility (STR, %), and linear sperm motility (LIN, %). See for instance, Lenz, R W, et al., J Anim Sci (2011) 89:383-388, incorporated by reference herein in its entirety.
One set of semen from each bull was used as a control while to the remaining sets of semen samples were added vitamin B12, as the antioxidant, at respective concentrations of 0.5 mg/ml and 0.25 mg/ml. For each sample, the same concentration of vitamin B12 was added (i) during the staining process, and (ii) in the catch fluid of the collection vessel. […] Sperm samples were sorted in “High Purity” mode, and the collected sex-sorted sperm were extended with a cryoextender, which in some cases again contained the same concentration of vitamin B12 and the samples were frozen. Three hours after thawing (which is a standard time frame to conduct quality control assessments on sorted frozen thawed sperm samples) the thawed samples were put through CASA, a machine that provides various data on sperm including motility and progressive motility information.
In the tables below: VAP (average path velocity (μm/s)); VSL (straight-line velocity (μm/s)); VCL (curvilinear velocity (μm/s)); ALH (average lateral head displacement (μm)); BCF (the number of times the sperm head crosses the mean path/s in Hz); STR (percent straight-line sperm motility); LIN (percent linear sperm motility); PIA (percent intact acrosomes); motile (percent motile sperm); and progressive (percent progressively motile sperm).
There is no correlation with regard to randomly assigned names such as “Bull A.” Bull A from Example 5 is not the same bull as Bull A from Example 7.
In both cases the concentration of the vitamin B12 was 1 mg/ml. For all other bulls in the table below unless otherwise indicated, the concentration of vitamin B12 added was also 1 mg/ml.
In an additional experiment, motility and progressive motility were checked 3.75 hours after thawing a sex sorted semen sample treated with the antioxidant. The OSR was not added to the control sample. The semen sample was derived from a single bull. 0.25 mg/ml concentration of vitamin B12 was added to the test sample during the staining step, the collecting step (in the catch fluid of the collecting vessel) and in the cryoprotectant extender prior to freezing the sample.
[…] The OSR was not added to the control samples. The semen samples were derived from two Holstein bulls.

[1] = Holstein 0 hr post-thaw, .25 mg/ml
[2] = Holstein 0 hr post-thaw, .35 mg/ml
[3] = Holstein 0 hr post-thaw, .45 mg/ml
[4] = Holstein 3 hr post-thaw (1st block), .25 mg/ml
[5] = Holstein 3 hr post-thaw (1st block), .35 mg/ml
[6] = Holstein 3 hr post-thaw (1st block), .45 mg/ml
[7] = Holstein 3 hr post-thaw (2nd block), .25 mg/ml
[8] = Holstein 3 hr post-thaw (2nd block), .35 mg/ml
[9] = Holstein 3 hr post-thaw (2nd block), .45 mg/ml
[10] = Holstein 6 hr post-thaw (1st block), .25 mg/ml
[11] = Holstein 6 hr post-thaw (1st block), .35 mg/ml

**Q.** What does the source list for `O=C(O)CCC(=O)C(=O)O` [AKG, Alpha-ketoglutarate]?
**A.** ALH [1]: 8; BCF [1]: 27; LIN [1]: 48; Motile [1]: 91; Prog [1]: 75; STR [1]: 82; VAP [1]: 104; VCL [1]: 185; VSL [1]: 81; ALH [2]: 7; BCF [2]: 29; LIN [2]: 51; Motile [2]: 80; Prog [2]: 65; STR [2]: 85; VAP [2]: 94; VCL [2]: 165; VSL [2]: 80; ALH [3]: 7; BCF [3]: 30; LIN [3]: 57; Motile [3]: 86; Prog [3]: 75; STR [3]: 89; VAP [3]: 98; VCL [3]: 162; VSL [3]: 88; ALH [4]: 7; BCF [4]: 26; LIN [4]: 45; Motile [4]: 77; Prog [4]: 60; STR [4]: 81; VAP [4]: 99; VCL [4]: 176; VSL [4]: 79; ALH [5]: 6; BCF [5]: 25; LIN [5]: 50; Motile [5]: 63; Prog [5]: 48; STR [5]: 83; VAP [5]: 85; VCL [5]: 145; VSL [5]: 70; ALH [6]: 5; BCF [6]: 24; LIN [6]: 56; Motile [6]: 60; Prog [6]: 56; STR [6]: 85; VAP [6]: 94; VCL [6]: 145; VSL [6]: 80; ALH [7]: 6; BCF [7]: 26; LIN [7]: 47; Motile [7]: 71; Prog [7]: 55; STR [7]: 81; VAP [7]: 96; VCL [7]: 169; VSL [7]: 77; ALH [8]: 5; BCF [8]: 21; LIN [8]: 50; Motile [8]: 64; Prog [8]: 38; STR [8]: 84; VAP [8]: 69; VCL [8]: 117; VSL [8]: 57; ALH [9]: 6; BCF [9]: 25; LIN [9]: 53; Motile [9]: 60; Prog [9]: 50; STR [9]: 84; VAP [9]: 90; VCL [9]: 144; VSL [9]: 75; ALH [10]: 6; BCF [10]: 17; LIN [10]: 39; Motile [10]: 36; Prog [10]: 7; STR [10]: 76; VAP [10]: 44; VCL [10]: 87; VSL [10]: 33; ALH [11]: 7; BCF [11]: 16; LIN [11]: 40; Motile [11]: 58
